How the values were obtained:
Experiment in all cases: normalised viability (% of control), CellTiter-Blue; higher = more viable cells (about 100 = DMSO control)
Details in all cases: incubation time: 72 h
[1] = test system: CAL-148
Experimental: (§1)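 DSRT, CellTiter-Blue viability, 72 h incubation. Signal is normalised to DMSO and benzethonium chloride controls. Value is the normalised response at dose 8.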

[2] = test system: CAL-51
Experimental: as §1

[3] = test system: CAL-85-1
Experimental: as §1

[4] = test system: DU-4475
Experimental: as §1

[5] = test system: HDQ-P1
Experimental: as §1

[6] = test system: MDA-MB-453
Experimental: as §1

[7] = test system: CAL-148; remark: listed apart in the source
Experimental: (§2)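 DSRT, CellTiter-Blue viability, 72 h incubation. Signal is normalised to DMSO and benzethonium chloride controls. Value is the normalised response at dose 6.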

[8] = test system: CAL-51; remark: listed apart in the source
Experimental: as §2

[9] = test system: CAL-85-1; remark: listed apart in the source
Experimental: as §2

[10] = test system: DU-4475; remark: listed apart in the source
Experimental: as §2

[11] = test system: HDQ-P1; remark: listed apart in the source
Experimental: as §2

[12] = test system: MDA-MB-453; remark: listed apart in the source
Experimental: as §2

[13] = test system: CAL-148; remark: listed apart in the source
Experimental: (§3)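 DSRT, CellTiter-Blue viability, 72 h incubation. Signal is normalised to DMSO and benzethonium chloride controls. Value is the normalised response at dose 7.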

[14] = test system: CAL-51; remark: listed apart in the source
Experimental: as §3

[15] = test system: CAL-85-1; remark: listed apart in the source
Experimental: as §3

[16] = test system: DU-4475; remark: listed apart in the source
Experimental: as §3

[17] = test system: HDQ-P1; remark: listed apart in the source
Experimental: as §3

[18] = test system: MDA-MB-453; remark: listed apart in the source
Experimental: as §3

## Cc1c(N)nc([C@H](CC(N)=O)NC[C@H](N)C(N)=O)nc1C(=O)N[C@H](C(=O)N[C@H](C)[C@@H](O)[C@H](C)C(=O)N[C@H](C(=O)NCCc1nc(-c2nc(C(=O)NCCC[S+](C)C)cs2)cs1)[C@@H](C)O)[C@@H](OC1OC(CO)C(O)C(O)C1OC1OC(CO)C(O)C(OC(N)=O)C1O)c1cnc[nH]1 (stereo partly drawn) [Bleomycin] (3000 nM)
[1]
  normalised viability: 88.2%
[2]
  normalised viability: 96.5%
[3]
  normalised viability: 92.7%
[4]
  normalised viability: 107%
[5]
  normalised viability: 76.5%
[6]
  normalised viability: 101%

## Cc1cc2c(F)c(Oc3ncnn4cc(OC[C@@H](C)O)c(C)c34)ccc2[nH]1 [Brivanib] (30 nM)
[7]
  normalised viability: 92.6%
[8]
  normalised viability: 91.9%
[9]
  normalised viability: 91.7%
[10]
  normalised viability: 109%
[11]
  normalised viability: 65.1%
[12]
  normalised viability: 85.4%

## Cc1cc2c(F)c(Oc3ncnn4cc(OC[C@@H](C)O)c(C)c34)ccc2[nH]1 [Brivanib] (300 nM)
[1]
  normalised viability: 98.5%
[2]
  normalised viability: 93.6%
[3]
  normalised viability: 89.8%
[4]
  normalised viability: 98.9%
[5]
  normalised viability: 113%
[6]
  normalised viability: 99.1%

## CC(C)C[C@H](NC(=O)[C@H](CCc1ccccc1)NC(=O)CN1CCOCC1)C(=O)N[C@@H](Cc1ccccc1)C(=O)N[C@@H](CC(C)C)C(=O)[C@@]1(C)CO1 [Carfilzomib] (30 nM)
[7]
  normalised viability: 40.8%
[8]
  normalised viability: 32.1%
[9]
  normalised viability: 9.23%
[10]
  normalised viability: 8.97%
[11]
  normalised viability: 1.01%
[12]
  normalised viability: 19.8%

## CC(C)C[C@H](NC(=O)[C@H](CCc1ccccc1)NC(=O)CN1CCOCC1)C(=O)N[C@@H](Cc1ccccc1)C(=O)N[C@@H](CC(C)C)C(=O)[C@@]1(C)CO1 [Carfilzomib] (300 nM)
[1]
  normalised viability: 1.83%
[2]
  normalised viability: 2.56%
[3]
  normalised viability: 2.07%
[4]
  normalised viability: 1.31%
[5]
  normalised viability: 0.3%
[6]
  normalised viability: 18.1%

## Nc1nc(Cl)nc2c1ncn2[C@@H]1O[C@H](CO)[C@@H](O)[C@@H]1F [Clofarabine] (300 nM)
[7]
  normalised viability: 68.7%
[8]
  normalised viability: 81.9%
[9]
  normalised viability: 65.1%
[10]
  normalised viability: 77%
[11]
  normalised viability: 70.1%
[12]
  normalised viability: 82.9%

## Nc1nc(Cl)nc2c1ncn2[C@@H]1O[C@H](CO)[C@@H](O)[C@@H]1F [Clofarabine] (3000 nM)
[1]
  normalised viability: 32.9%
[2]
  normalised viability: 15.4%
[3]
  normalised viability: 54.5%
[4]
  normalised viability: 19.6%
[5]
  normalised viability: 95.6%
[6]
  normalised viability: 44.4%

## CCN(CC)CCOc1ccc(C(=C(Cl)c2ccccc2)c2ccccc2)cc1 [Clomifene] (300 nM)
[7]
  normalised viability: 99.2%
[8]
  normalised viability: 91.6%
[9]
  normalised viability: 102%
[10]
  normalised viability: 90.6%
[11]
  normalised viability: 105%
[12]
  normalised viability: 93.9%

## CCN(CC)CCOc1ccc(C(=C(Cl)c2ccccc2)c2ccccc2)cc1 [Clomifene] (3000 nM)
[1]
  normalised viability: 93.3%
[2]
  normalised viability: 95.4%
[3]
  normalised viability: 106%
[4]
  normalised viability: 92.4%
[5]
  normalised viability: 132%
[6]
  normalised viability: 82.8%

## C[C@@H]1C[C@H]2[C@@H]3CCC4=CC(=O)C=C[C@]4(C)[C@@]3(F)[C@@H](O)C[C@]2(C)[C@@]1(O)C(=O)CO [Dexamethasone] (300 nM)
[7]
  normalised viability: 105%
[8]
  normalised viability: 99.4%
[9]
  normalised viability: 99.3%
[10]
  normalised viability: 99%
[11]
  normalised viability: 69.5%
[12]
  normalised viability: 73.7%

## C[C@@H]1C[C@H]2[C@@H]3CCC4=CC(=O)C=C[C@]4(C)[C@@]3(F)[C@@H](O)C[C@]2(C)[C@@]1(O)C(=O)CO [Dexamethasone] (3000 nM)
[1]
  normalised viability: 93.3%
[2]
  normalised viability: 106%
[3]
  normalised viability: 115%
[4]
  normalised viability: 100%
[5]
  normalised viability: 112%
[6]
  normalised viability: 78.2%

## C[C@@H](CN1CC(=O)NC(=O)C1)N1CC(=O)NC(=O)C1 [Dexrazoxane] (300 nM)
[7]
  normalised viability: 83.5%
[8]
  normalised viability: 95%
[9]
  normalised viability: 95.4%
[10]
  normalised viability: 108%
[11]
  normalised viability: 82.2%
[12]
  normalised viability: 97.6%

## C[C@@H](CN1CC(=O)NC(=O)C1)N1CC(=O)NC(=O)C1 [Dexrazoxane] (1000 nM)
[13]
  normalised viability: 102%
[14]
  normalised viability: 97.4%
[15]
  normalised viability: 86.9%
[16]
  normalised viability: 83.6%
[17]
  normalised viability: 107%
[18]
  normalised viability: 97.8%

## C[C@@H](CN1CC(=O)NC(=O)C1)N1CC(=O)NC(=O)C1 [Dexrazoxane] (3000 nM)
[1]
  normalised viability: 96%
[2]
  normalised viability: 83.9%
[3]
  normalised viability: 104%
[4]
  normalised viability: 92.8%
[5]
  normalised viability: 98.1%
[6]
  normalised viability: 87.5%

## CC(C)C(=O)Nc1ccc([N+](=O)[O-])c(C(F)(F)F)c1 [Flutamide] (300 nM)
[7]
  normalised viability: 104%
[8]
  normalised viability: 105%
[9]
  normalised viability: 98.3%
[10]
  normalised viability: 113%
[11]
  normalised viability: 93.6%
[12]
  normalised viability: 108%

## CC(C)C(=O)Nc1ccc([N+](=O)[O-])c(C(F)(F)F)c1 [Flutamide] (3000 nM)
[1]
  normalised viability: 104%
[2]
  normalised viability: 110%
[3]
  normalised viability: 94.9%
[4]
  normalised viability: 93.2%
[5]
  normalised viability: 98.8%
[6]
  normalised viability: 120%

## COc1cc2c(Oc3ccc(NC(=O)C4(C(=O)Nc5ccc(F)cc5)CC4)cc3F)ccnc2cc1OCCCN1CCOCC1 [Foretinib] (30 nM)
[7]
  normalised viability: 95.1%
[8]
  normalised viability: 93.3%
[9]
  normalised viability: 89.2%
[10]
  normalised viability: 84.3%
[11]
  normalised viability: 59.1%
[12]
  normalised viability: 94.1%

## NC(=O)NO [Hydroxyurea] (3000 nM)
[7]
  normalised viability: 108%
[8]
  normalised viability: 103%
[9]
  normalised viability: 110%
[10]
  normalised viability: 91.3%
[11]
  normalised viability: 91.3%
[12]
  normalised viability: 109%

Source: the supplement of paper PMC4862054
